Here are results for 4 compounds from patent US20220380385A1, “PYRIMIDINE FIVE-MEMBERED NITROGEN HETEROCYCLIC DERIVATIVE, PREPARATION METHOD THEREOF AND PHARMACEUTICAL USE THEREOF” (TUOJIE BIOTECH(SHANGHAI) CO., LTD., priority 2019, published 2022).

By AUC is commonly meant the area under the concentration-time curve, a measure of exposure. In general, Cmax refers to the maximum level reached in the sampled fluid or tissue.

One series deals with T1, CYP1A2 (Homo sapiens, UniProt P05177).
T1 construct: Mixed human liver microsomes from 150 donors; tissue Corning 452117; host or cells: pooled human liver microsomes (150 donors)
T1 sequence (P05177 1-516): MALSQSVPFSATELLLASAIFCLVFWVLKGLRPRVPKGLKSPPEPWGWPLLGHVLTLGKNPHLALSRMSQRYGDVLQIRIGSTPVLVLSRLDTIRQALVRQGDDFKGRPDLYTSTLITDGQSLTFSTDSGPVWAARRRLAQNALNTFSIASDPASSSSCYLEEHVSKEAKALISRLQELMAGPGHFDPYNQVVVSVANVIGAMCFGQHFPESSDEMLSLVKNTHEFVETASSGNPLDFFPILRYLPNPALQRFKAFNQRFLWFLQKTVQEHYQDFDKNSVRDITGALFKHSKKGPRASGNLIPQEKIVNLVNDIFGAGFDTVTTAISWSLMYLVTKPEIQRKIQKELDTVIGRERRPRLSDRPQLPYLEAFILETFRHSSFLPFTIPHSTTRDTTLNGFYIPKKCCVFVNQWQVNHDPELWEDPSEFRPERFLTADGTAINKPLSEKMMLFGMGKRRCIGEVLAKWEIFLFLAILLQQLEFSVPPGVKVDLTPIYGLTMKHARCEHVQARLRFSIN
The series can be described thus: CYP inhibition in mixed human liver microsomes, CYP1A2 (phenacetin). The class given is in vitro ADME. The settings on record: mixed human liver microsomes 0.2 mg/mL, phenacetin; read-out: Median inhibitory concentration (IC50) CYP 1A2. The method, then: (§1) Mixed human liver microsomes from 150 donors (purchased from Corning, catalog number 452117) were used to evaluate the representative substrate metabolic responses of the five main human CYP subtypes (CYP1A2, CYP2C9, CYP2C19, CYP2D6 and CYP3A4/5). The influence of different concentrations of test compounds on the metabolic responses of phenacetin (CYP1A2), diclofenac sodium (CYP2C9), S-mephenytoin (CYP2C19), bufurolol hydrochloride (2D6) and midazolam (CYP3A4/5) was determined by liquid chromatography tandem mass spectrometry (LC/MS/MS).
(§2) 200 μL of the reaction system (100 mmol/L phosphate buffer, pH 7.4, containing 0.3% DMSO, 0.6% acetonitrile and 0.1% methanol by volume respectively) with 30 µM phenacetin, 10 μM diclofenac sodium, 35 μM S-mephenytoin, 5 μM bufurolol hydrochloride, 3 μM midazolam, 1 mM NADPH, test compound (at a concentration of 0.1, 0.3, 1, 3, 10 and 30 μmol/L respectively) or positive compound or blank control and mixed human liver microsomes (0.2 mg/mL) was incubated at 37° C. for 5 minutes. […]
(§3) The peak area was calculated based on the chromatograms. The residual activity ratio (%) was calculated using the following equation: […]
(§4) The CYP median inhibitory concentration (IC50) was calculated by Excel XLfit 5.3.1.3.

The next series has as its target T2, CYP2C9 (Homo sapiens, UniProt P11712).
T2 construct: Mixed human liver microsomes from 150 donors; tissue Corning 452117; host or cells: pooled human liver microsomes (150 donors)
Kind of series: CYP inhibition in mixed human liver microsomes, CYP2C9 (diclofenac sodium). The class given is in vitro ADME. Particulars: mixed human liver microsomes 0.2 mg/mL, diclofenac sodium; read-out: Median inhibitory concentration (IC50) CYP 2C9. As for the experimental part: as §1, §2, §3, §4

The next series relates to CYP3A4/5. Kind of series: CYP inhibition in mixed human liver microsomes, CYP3A4/5 (midazolam). The class given is in vitro ADME. The settings on record: mixed human liver microsomes (150 donors), pH 7.4, probe midazolam (3 μM), mixed human liver microsomes 0.2 mg/mL, read-out: Median inhibitory concentration (IC50) CYP 3A4/5. As for the experimental part:
as §1, §2, §3, §4

The next series concerns the target T3, CYP2C19 (Homo sapiens, UniProt P33261).
T3 construct: Mixed human liver microsomes from 150 donors; tissue Corning 452117; host or cells: pooled human liver microsomes (150 donors)
The series can be described thus: CYP inhibition in mixed human liver microsomes, CYP2C19 (S-mephenytoin). The class given is in vitro ADME. Particulars: mixed human liver microsomes 0.2 mg/mL, S-mephenytoin; read-out: Median inhibitory concentration (IC50) CYP 2C19. As for the experimental part: as §1, §2, §3, §4
Background: Liver microsomes are a subcellular fraction often used to study metabolism.

The next series concerns the target T4, CYP2D6 (Homo sapiens, UniProt P10635).
T4 construct: Mixed human liver microsomes from 150 donors; tissue Corning 452117; host or cells: pooled human liver microsomes (150 donors)
Kind of series: CYP inhibition in mixed human liver microsomes, CYP2D6 (bufurolol hydrochloride). The class given is in vitro ADME. The settings on record: mixed human liver microsomes 0.2 mg/mL, bufurolol hydrochloride; read-out: Median inhibitory concentration (IC50) CYP 2D6. The method, then:
as §1, §2, §3, §4

The nature of series [1]: In vitro metabolic stability in rat liver microsomes. The class given is in vitro ADME. The settings on record: rat liver microsomes (male Wistar Han), NADPH, 37° C.; read-out: Intrinsic clearance rate. The method, then:
The concentration of the compound in the reaction system was determined by LC/MS/MS, so as to calculate the intrinsic clearance rate of the test compound and to evaluate the in vitro metabolic stability in rat liver microsomes.
222.5 μL, 1.1236 mg/mL of a mixed solution of rat liver microsomes (male Wistar Han strain, purchased from Corning, catalog number 452511) and 25 μL, 10 mM of NADPH were added into the incubation plate. The mixture was mixed by vortexing for 10 seconds. The plate was incubated in a water bath at 37° C. for 8 minutes. 2.5 μL, 100 μM of the test compound or positive control was added to the incubation plate to start the reaction. The mixture was mixed by vortexing for 12 seconds, and incubated in a water bath at 37° C. The reaction was stopped by transferring 20 μL of the incubation system to a stop plate containing 100 μL of cold stop solution at 0.5, 5, 10, 15, 20 and 30 minutes. The mixture was mixed by vortexing for 2 minutes. The stop plate was centrifuged at 4000 rpm for 20 minutes, then left to stand at 4° C. for 30 minutes, and then centrifuged at 4000 rpm for 20 minutes. 40 μL of the supernatant of each compound was transferred to a 96-well injection plate, and 160 μL of pure water was added to dilute the samples.
The obtained samples were quantified by ion chromatogram, and the residual rate was calculated according to the peak area of the test compounds or positive control. The slope k was determined by linear regression of the natural logarithm of the residual rate to the incubation time by using Microsoft Excel.
The in vitro half-life (in vitro t1/2) was calculated from the slope: in vitro t1/2=−(0.693/k)
The following equation was used to convert in vitro half-life into intrinsic clearance rate (in vitro CLint, μL/min/mg protein):
in vitro CLint=(0.693/t1/2)×(incubation volume (L)/protein amount (mg))

For series [2], the target named is T5, full-length SHP2 (aa 1-593) (Homo sapiens, UniProt Q06124).
T5 sequence (Q06124 1-593): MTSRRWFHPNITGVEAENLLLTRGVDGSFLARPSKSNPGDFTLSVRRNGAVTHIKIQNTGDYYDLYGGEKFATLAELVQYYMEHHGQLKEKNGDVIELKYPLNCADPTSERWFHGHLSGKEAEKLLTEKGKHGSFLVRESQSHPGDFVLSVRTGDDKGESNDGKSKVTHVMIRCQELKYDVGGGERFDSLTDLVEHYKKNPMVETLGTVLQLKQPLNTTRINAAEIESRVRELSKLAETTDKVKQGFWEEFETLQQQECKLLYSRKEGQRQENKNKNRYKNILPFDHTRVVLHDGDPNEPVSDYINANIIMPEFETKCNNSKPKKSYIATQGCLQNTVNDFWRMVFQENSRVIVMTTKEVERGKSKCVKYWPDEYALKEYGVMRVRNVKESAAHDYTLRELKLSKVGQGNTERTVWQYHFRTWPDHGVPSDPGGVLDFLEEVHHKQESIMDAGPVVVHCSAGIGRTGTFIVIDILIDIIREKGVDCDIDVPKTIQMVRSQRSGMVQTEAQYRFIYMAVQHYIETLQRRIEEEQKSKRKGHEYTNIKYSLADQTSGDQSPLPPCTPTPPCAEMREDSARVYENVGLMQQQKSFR
Kind of series: Activity on SHP2 phosphatase (DiFMUP fluorescence).
Description: 0.2 nM recombinantly expressed full-length SHP2 (aa 1-593), 0.5 nM activated polypeptide IRS1 with dual phosphorylation sites (sequence: H2N-LN(pY)IDLDLY(dPEG8)LST(pY)ASINFQK-amide), and a series of concentrations of the test compound (final concentrations of 1 μM, 0.3 μM, 0.1 μM, 0.03 μM, 0.01 μM, 0.003 μM, 0.001 M, 0.0003 μM, 0.0001 μM and 0.00003 μM) were added into the phosphatase reaction solution (60 mM HEPES, PH 7.5 0.005% Brij-35, 75 mM NaCl, 75 mM KCl, 1 mM EDTA, 5 mM DTT), followed by shaking (350 rpm) at room temperature for 30 minutes. Then the reaction substrate DiFMUP was added at a final concentration of 30 μM, and the reaction solution was reacted at room temperature for 30 minutes. Then the phosphatase reaction was stopped by adding 5 μL of the reaction stop solution (60 mM HEPES, pH 7.5, 0.2% SDS). Ex358 nm/Em455 fluorescence value was read on the fluorescence plate reader MD SpectraMax.
The IC50 value of compounds was calculated by using the four-parameter logit method. […] Different concentrations correspond to different inhibition rates of phosphatase activity. A reverse curve was plotted and the IC50 of the inhibitors was calculated from the curve. The IC50 of compounds was calculated by using Primer premier 6.0.

A short description of series [3]: In vivo pharmacokinetics in rats (gavage). Further details: species or system SD rats. The settings on record: original drug, rat, 7.5 mpk. As for the experimental part: Rats were used as the test animals. The plasma drug concentration at different times after the rats were given the compounds of the invention by gavage was determined by using the LC/MS/MS method. The in vivo pharmacokinetic behavior of the compounds of the present invention in rats was studied, and pharmacokinetic characteristics thereof were evaluated.
Test animals: 3 healthy, 6-8 weeks old male SD rats in each group
A certain amount of drug was weighed, and 0.5% by mass of hypromellose, 0.1% by volume of Tween 80 and 99.4% by volume of water were added thereto to formulate a white suspension at 1 mg/mL.
SD rats were fasted overnight, then the drug was administered by gavage. The dosage of reference 1 was 7.5 mg/kg, and the dosage of Example 1 was 5 mg/kg.
Rats were administered the compounds of the present invention by gavage. At 0.25, 0.5, 1, 2, 4, 8 and 24 hours after administration, 0.2 mL of blood was collected from the jugular vein and placed in a test tube containing EDTA-K2. The tube was centrifuged at 4° C., 4000 rpm for 5 minutes to separate the plasma, which was stored at −75° C.
Determination of the content of the test compounds in rat plasma after administration of different concentrations of drugs by gavage: 50 μL of rat plasma at each time after administration was taken, and 200 μL of a solution of the internal standard dexamethasone in acetonitrile (50 ng/mL). The mixture was mixed by vortexing for 30 seconds, centrifuged at 4° C., 4700 rpm for 15 minutes. The supernatant of the plasma samples were collected and diluted three times with water, and 2.0 μL was taken for the LC/MS/MS analysis.

Series [4] can be described thus: In vivo pharmacokinetics in cynomolgus monkeys (gavage). Particulars: male, plasma, po, 5 mg/kg, original drug, cynomolgus monkey, 5 mpk. The method, then:
Cynomolgus monkeys were used as the test animals. The plasma drug concentration at different times after the cynomolgus monkeys were given the compounds of the invention by gavage was determined by using the LC/MS/MS method. The in vivo pharmacokinetic behavior of the compounds of the present invention in cynomolgus monkeys was studied, and pharmacokinetic characteristics thereof were evaluated.
Test animals: 3 healthy, 2-5 years old male cynomolgus monkeys in each group;
Administration by gavage: a certain amount of drug was weighed, and 0.5% by mass of hypromellose, 0.1% by volume of Tween 80 and 99.4% by volume of water were added thereto to formulate a white suspension at 1 mg/mL.
The cynomolgus monkeys were fasted overnight, and then the drug was administered by gavage at a dose of 5 mg/kg.
Cynomolgus monkeys were administered the compounds of the present invention by gavage. At 0.25, 0.5, 1, 2, 4, 8 and 24 hours after administration, 0.2 mL of blood was collected from the peripheral vein and placed in a test tube containing EDTA-K2. The tube was centrifuged at 2 to 8° C., 2000 rpm for 10 minutes to separate the plasma, which was stored at −75° C.
Determination of the content of the test compounds in cynomolgus monkey plasma after administration of different concentrations of drugs by gavage: 55 μL of cynomolgus monkey plasma at each time after administration was taken, and 200 μL of a solution of the internal standard verapamil or dexamethasone in acetonitrile. The mixture was mixed by vortexing for 30 seconds, centrifuged at 4° C., 3900 rpm for 15 minutes. The supernatant of the plasma samples were collected and diluted three times with water, and 15 μL was taken for LC/MS/MS analysis.

T3 sequence (P33261 whole entry): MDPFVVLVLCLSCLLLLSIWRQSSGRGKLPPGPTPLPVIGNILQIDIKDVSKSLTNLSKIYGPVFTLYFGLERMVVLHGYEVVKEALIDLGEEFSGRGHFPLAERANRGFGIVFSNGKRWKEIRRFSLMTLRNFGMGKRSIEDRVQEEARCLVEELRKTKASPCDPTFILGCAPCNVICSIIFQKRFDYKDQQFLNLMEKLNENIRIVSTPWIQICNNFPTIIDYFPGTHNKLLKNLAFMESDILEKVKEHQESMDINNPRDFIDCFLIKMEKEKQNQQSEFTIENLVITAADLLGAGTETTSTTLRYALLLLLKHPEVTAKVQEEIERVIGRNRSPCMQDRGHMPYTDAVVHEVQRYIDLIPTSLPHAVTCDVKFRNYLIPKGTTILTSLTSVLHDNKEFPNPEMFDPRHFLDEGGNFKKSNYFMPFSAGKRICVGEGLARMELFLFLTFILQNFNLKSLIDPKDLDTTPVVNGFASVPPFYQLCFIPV
T4 sequence (P10635 whole entry): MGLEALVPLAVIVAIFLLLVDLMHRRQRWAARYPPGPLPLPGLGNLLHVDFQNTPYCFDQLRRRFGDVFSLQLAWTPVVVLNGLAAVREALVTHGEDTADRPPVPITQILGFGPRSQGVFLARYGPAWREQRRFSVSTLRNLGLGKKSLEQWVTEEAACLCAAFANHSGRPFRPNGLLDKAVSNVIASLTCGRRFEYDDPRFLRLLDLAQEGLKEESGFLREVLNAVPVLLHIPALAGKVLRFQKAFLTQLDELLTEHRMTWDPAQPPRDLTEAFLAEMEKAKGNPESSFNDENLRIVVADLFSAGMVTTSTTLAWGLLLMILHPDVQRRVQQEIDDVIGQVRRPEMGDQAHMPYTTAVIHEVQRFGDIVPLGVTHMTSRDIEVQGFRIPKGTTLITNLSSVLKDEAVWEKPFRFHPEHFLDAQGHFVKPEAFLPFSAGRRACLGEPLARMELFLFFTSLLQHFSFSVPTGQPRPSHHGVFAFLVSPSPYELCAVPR
T2 sequence (P11712 whole entry): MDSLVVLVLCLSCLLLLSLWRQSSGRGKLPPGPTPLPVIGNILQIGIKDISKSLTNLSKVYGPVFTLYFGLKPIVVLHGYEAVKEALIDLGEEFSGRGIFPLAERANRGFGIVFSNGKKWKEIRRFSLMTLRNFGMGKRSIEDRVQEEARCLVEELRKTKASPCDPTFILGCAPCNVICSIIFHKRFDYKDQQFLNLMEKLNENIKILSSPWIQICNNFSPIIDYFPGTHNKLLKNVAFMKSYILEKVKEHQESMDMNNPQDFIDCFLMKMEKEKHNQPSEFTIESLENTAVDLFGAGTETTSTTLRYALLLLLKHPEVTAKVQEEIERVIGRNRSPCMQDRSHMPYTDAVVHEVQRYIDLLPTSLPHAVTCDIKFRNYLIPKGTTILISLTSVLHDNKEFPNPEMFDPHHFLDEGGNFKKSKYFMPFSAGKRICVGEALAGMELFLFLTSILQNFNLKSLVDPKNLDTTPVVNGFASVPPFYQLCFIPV

As to `Nc1nccc(Sc2cnc(N3CCC4(CC3)Cc3ncccc3[C@H]4N)n3ccnc23)c1Cl` [Example 1, (S)-1′-(8-((2-Amino-3-chloropyridin-4-yl)thio)imidazo[1,2-c]pyrimidin-5-yl)-5,7-dihydrospiro[cyclopenta[b]pyridine-6,4′-piperidin]-5-amine], the IC50 on CYP1A2 was 9.21 µM; at CYP2C9, more than 20 µM; at CYP2C19, more than 20 µM; on CYP2D6 it was more than 20 µM. Further, in the series with CYP3A4/5, the IC50 at 5 min was more than 20 µM.

`[2H]CNc1nccc(Sc2c(C)nc(N3CCC4(CC3)Cc3ncccc3[C@H]4N)n3ccnc23)c1Cl` [Example 6, (S)-1′-(8-((3-Chloro-2-((methyl-d)amino)pyridin-4-yl)thio)-7-methylimidazo[1,2-c]pyrimidin-5-yl)-5,7-dihydrospiro[cyclopenta[b]pyridine-6,4′-piperidin]-5-amine]: the microsomal CLint at 1 µM in [1] stood at 34.7 µL/min/mg. Moreover, the IC50 in series [2] was found to be 0.0047 µM.

Take `[2H]C([2H])Nc1nccc(Sc2c(C)nc(N3CCC4(CC3)Cc3ncccc3[C@H]4N)n3ccnc23)c1Cl` [Example 5, (S)-1′-(8-((3-Chloro-2-((methyl-d2)amino)pyridin-4-yl)thio)-7-methylimidazo[1,2-c]pyrimidin-5-yl)-5,7-dihydrospiro[cyclopenta[b]pyridine-6,4′-piperidin]-5-amine]: the microsomal CLint at 1 µM in series [1] worked out at 26.6 µL/min/mg. In [2], this compound came in with an IC50 of 0.0048 µM.

With `CNc1nccc(Sc2c(C)nc(N3CCC4(CC3)Cc3ncccc3[C@H]4N)n3ccnc23)c1Cl` [Example 2, (S)-1′-(8-((3-Chloro-2-(methylamino)pyridin-4-yl)thio)-7-methylimidazo[1,2-c]pyrimidin-5-yl)-5,7-dihydrospiro[cyclopenta[b]pyridine-6,4′-piperidin]-5-amine], the AUC in [3] (male, SD, plasma, po, 7.5 mg/kg, read-out: Area under curve AUC) stood at 4250 ng·h/mL; in [4] (read-out: Area under curve AUC) it was 71000 ng·h/mL. In addition, the Cmax in [3] (male, SD, plasma, po, 7.5 mg/kg, read-out: Maximum blood conc. Cmax) stood at 500 ng/mL; in series [4] (read-out: Maximum blood conc. Cmax) it was 12700 ng/mL. Also, the “Area under curve of unit dose AUC/D” value in series [3] is on record as 567 ng*h/mL per mg/kg. Besides, the microsomal CLint at 1 µM in series [1] was determined as 19.2 µL/min/mg.
